Data from BindingDB's records for PubMed 33333396 (National University of Ireland Galway, 2021).

What was measured:
[1] = molecular target: T1, Bcl-2 homologous antagonist/killer (Homo sapiens, UniProt Q16611); test: Binding affinity to Bak/Mcl-1 (unknown origin) protein protein interaction by fluorescence polarization assay
T1 sequence (Q16611 whole entry): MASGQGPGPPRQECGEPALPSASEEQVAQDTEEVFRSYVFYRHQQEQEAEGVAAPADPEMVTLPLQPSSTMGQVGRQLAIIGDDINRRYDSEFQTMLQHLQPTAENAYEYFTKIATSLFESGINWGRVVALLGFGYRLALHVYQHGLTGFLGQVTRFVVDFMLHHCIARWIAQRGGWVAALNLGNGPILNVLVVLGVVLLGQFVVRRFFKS

[2] = molecular target: T1, Bcl-2 homologous antagonist/killer; test: Inhibition of Mcl-1/Bak (unknown origin)

Structure (SMILES)	Ki [1] [nM]	IC50 [2] [nM]
CC(C)Oc1cc(C(=O)Nc2ccc(C(=O)Nc3ccc(C(=O)O)cc3OC(C)C)nc2OC(C)C)ccc1N	1790	–
Cc1cc2c(C(=O)NC(C)c3ccc(Cl)cc3)c(O)c(O)cc2c(O)c1-c1c(C)cc2c(C(=O)NC(C)c3ccc(Cl)cc3)c(O)c(O)cc2c1O (configuration not stated) [Apogossypol derivative, 8k]	–	230
